The assay deals with S. cerevisiae M11205. It counts as cell-based, Saccharomyces cerevisiae.

Consider `OCCCCO` [1,4-butanediol], for which the “Contribution to enhancement at higher sugar concentrations” value is listed as “no distinct contribution for enhancement”, the “Contribution to stimulant properties versus control without addition” value is reported as “not itself a contributor to the stimulant properties”, the “Day 5 % of Theoretical Max. Ethanol Yield” value is 88.8% and the “Effect on fermentation rates” value was “does not create the increased fermentation rates”.

Source of the values: patent US20210222208A1, “SUGAR-DERIVED STIMULANT FOR ENHANCEMENT OF AEROBIC AND ANAEROBIC FERMENTATION PERFORMANCE” (priority 2018, published 2021).
